Test results from patent publication US6362336B1, “Chemical compounds” (Zeneca Limited, priority 1995, dated 2002).

| melting point | SMILES |
| --- | --- |
| 215 to 218 °C | COc1cc2c(Nc3ccc(Cl)cc3F)ncnc2cc1OCc1ccccn1 [Example 39, 4-(4-chloro-2-fluoroanilino)-6-methoxy-7-((2-pyridyl)methoxy)quinazoline] |
| 208 to 212 °C | COc1cc2c(Nc3ccc(Cl)cc3F)ncnc2cc1OCCN(C)c1cc(C)nc(C)c1 [Example 46, 4-(4-chloro-2-fluoroanilino)-7-(2-(N-(2,6-dimethyl-4-pyridyl)-N-methylamino)ethoxy)-6-methoxyquinazoline] |
| 257 to 260 °C | COc1cc2c(Nc3cc(O)c(C)cc3F)ncnc2cc1OCc1ccncc1.Cl |
| 249 to 251 °C | COc1cc2c(Nc3ccc(C)c(O)c3)ncnc2cc1OCc1ccncc1.Cl |
| 243 to 245 °C | COc1cc2c(Nc3ccc(C)c(O)c3)ncnc2cc1OCc1csc(C)n1.Cl |
| 246 to 248 °C | COc1cc2c(Nc3ccc(C)c(O)c3)ncnc2cc1OCc1ccsc1.Cl |
| 258 to 259 °C | COc1cc2c(Nc3ccc(C)c(O)c3)ncnc2cc1OCc1cccnc1 [Example 3, 4-(3-hydroxy-4-methylanilino)-6-methoxy-7-(3-pyridylmethoxy)quinazoline] |
| 237 to 239 °C | COc1cc2c(Nc3ccc(Cl)cc3F)ncnc2cc1OCc1ccncn1.Cl |
| 252 to 254 °C | COc1cc2c(Nc3ccc(C)c(O)c3)ncnc2cc1OCc1c(C)noc1C.Cl |
| 290 °C | COc1cc2c(Nc3ccc(Cl)cc3F)ncnc2cc1OCc1ccnc(N(C)C)c1.Cl |
| 216 to 218 °C | COc1cc2c(Nc3ccc(Cl)cc3F)ncnc2cc1OCCCn1ccccc1=O [Example 65, 4-(4-chloro-2-fluoroanilino)-6-methoxy-7-(3-(2-oxo-1,2-dihydro-1-pyridyl)propoxy)quinazoline] |
| 290 to 291 °C | COc1cc2c(Nc3ccc(C)c(O)c3)ncnc2cc1OCc1ccncn1 [Example 5, 4-(3-hydroxy-4-methylanilino)-6-methoxy-7-(pyrimidin-4-ylmethoxy)quinazoline] |
| 253 to 257 °C | Cl.Oc1cc(Nc2ncnc3cc(OCc4ccccc4)ccc23)c(F)cc1Cl |
| 245 to 250 °C | COc1cc2c(Nc3cc(O)c(C)cc3F)ncnc2cc1OCc1ccnc(Cl)c1.Cl |
| 221 to 224 °C | COc1cc2c(Nc3ccc(Cl)cc3F)ncnc2cc1OCc1ccnc(C)c1 [Example 63, 4-(4-chloro-2-fluoroanilino)-6-methoxy-7-((2-methyl-4-pyridyl)methoxy)quinazoline] |
| 182 to 186 °C | COc1cc2c(Nc3ccc(Cl)cc3F)ncnc2cc1OCCSc1ccncc1 [Example 68, 4-(4-chloro-2-fluoroanilino)-6-methoxy-7-(2-(4-pyridylthio)ethoxy)quinazoline] |
| 199 to 201 °C | COc1cc2c(Nc3ccc(Cl)cc3F)ncnc2cc1OCCCSc1nccn1C [Example 66, 4-(4-chloro-2-fluoroanilino)-6-methoxy-7-(3-(1-methylimidazol-2-ylthio)propoxy)quinazoline] |
| 220 to 225 °C | COc1cc2c(Nc3ccc(Cl)cc3F)ncnc2cc1OCc1csc(C)n1.Cl |
| 194 to 196 °C | COc1cc2c(Nc3ccc(Cl)cc3F)ncnc2cc1OCCN(C)c1ncccn1.Cl |
| 209 to 213 °C | COc1cc2c(Nc3ccc(Cl)cc3F)ncnc2cc1OCc1ccnc(C#N)c1 [Example 60, 4-(4-chloro-2-fluoroanilino)-7-((2-cyano-4-pyridyl)methoxy)-6-methoxyquinazoline] |
| 210 to 212 °C | COc1cc2c(Nc3ccc(Cl)cc3F)ncnc2cc1OCc1ccnc(Br)c1 [Example 59, 7-((2-bromo-4-pyridyl)methoxy)-4-(4-chloro-2-fluoroanilino)-6-methoxyquinazoline] |
| 216 to 221 °C | COc1cc2c(Nc3ccc(Cl)cc3F)ncnc2cc1OCc1cccnc1.Cl |

| melting point | SMILES |
| --- | --- |
| 188 to 190 °C | COc1cc2c(Nc3ccc(Cl)cc3F)ncnc2cc1OCCOc1cccnc1 [Example 69, 4-(4-chloro-2-fluoroanilino)-6-methoxy-7-(2-(3-pyridyloxy)ethoxy)quinazoline] |
| 138 to 140 °C | COc1cc2c(Nc3ccc(Cl)cc3F)ncnc2cc1OCCCOc1ccncc1 [Example 67, 4-(4-chloro-2-fluoroanilino)-6-methoxy-7-(3-(4-pyridyloxy)propoxy)quinazoline] |
| 209 to 211 °C | COc1cc2c(Nc3ccc(Cl)cc3F)ncnc2cc1OCCn1ccccc1=O [Example 18, 4-(4-chloro-2-fluoroanilino)-6-methoxy-7-[2-(2-oxo-1,2-dihydro-1-pyridyl)ethoxy]quinazoline] |
| 224 to 229 °C | COc1cc2c(Nc3ccc(Cl)cc3F)ncnc2cc1OCCc1nccn1C.Cl |
| 277 to 281 °C | COc1cc2c(Nc3cc(O)c(Cl)cc3F)ncnc2cc1OCc1ccsc1.Cl |
| 212 to 214 °C | CCOC(=O)c1cc(COc2cc3ncnc(Nc4ccc(Cl)cc4F)c3cc2OC)ccn1 [Example 93, 4-(4-chloro-2-fluoroanilino)-7-(2-ethoxycarbonylpyrid-4-yl)methoxy-6-methoxyquinazoline] |
| 265 to 270 °C | COc1cc2c(Nc3cc(O)c(C)cc3F)ncnc2cc1OCc1ccc(C#N)cc1.Cl |
| 243 to 248 °C | COc1cc2c(Nc3ccc(Cl)cc3F)ncnc2cc1OCCCN(C)c1ccncc1.Cl |
| 194 to 202 °C | COc1cc2c(Nc3ccc(Cl)cc3F)ncnc2cc1OCc1csc(NC(C)=O)n1.Cl |
| 294 to 298 °C | COc1cc2c(Nc3cc(O)c(C)cc3F)ncnc2cc1OCc1ccccc1.Cl |
| 197 to 198 °C | COc1cc2c(Oc3ccc(Cl)cc3F)ncnc2cc1OCc1ccncc1 [Example 44, 4-(4-chloro-2-fluorophenoxy)-6-methoxy-7-((4-pyridyl)methoxy)quinazoline] |
| 202 to 204 °C | COc1cc2c(Nc3ccc(C)c(O)c3)ncnc2cc1OCc1csc(NC(C)=O)n1.Cl |
| 236 to 238 °C | COc1cc2c(Nc3ccc(C)c(O)c3)ncnc2cc1OCc1ccccn1.Cl |
| 200 to 202 °C | COc1cc2c(Nc3ccc(Cl)cc3F)ncnc2cc1OCCOc1ccncc1 [Example 17, 4-(4-chloro-2-fluoroanilino)-6-methoxy-7-(2-(4-pyridyloxy)ethoxy)quinazoline] |
| 189 to 191 °C | COc1cc2c(Nc3ccc(Cl)cc3F)ncnc2cc1OCCc1ccncc1.Cl |
| > 250 °C | COc1cc2c(Nc3ccc(Cl)cc3F)ncnc2cc1OCCCn1ccc(=O)cc1 [Example 19, 4-(4-chloro-2-fluoroanilino)-6-methoxy-7-[3-(4-oxo-1,4-dihydro-1-pyridyl)propoxy]quinazoline] |
| 246 to 248 °C | COc1cc2c(Nc3cc(O)c(C)cc3F)ncnc2cc1OCCCc1ccncc1.Cl |
| 202 to 204 °C | COc1cc(COc2cc3ncnc(Nc4ccc(Cl)cc4F)c3cc2OC)ccn1 [Example 62, 4-(4-chloro-2-fluoroanilino)-7-((2-methoxy-4-pyridyl)methoxy)-6-methoxyquinazoline] |
| 278 to 282 °C | COc1cc2c(Nc3ccc(C)c(O)c3)ncnc2cc1OCCCc1ccncc1.Cl |
| 257 to 260 °C | COc1cc2c(Nc3ccc(C)c(O)c3)ncnc2cc1OCc1nccn1C.Cl |
| 195 to 220 °C | COc1cc2c(Nc3cc(O)c(C)cc3F)ncnc2cc1OCCn1ccnc1.Cl |
| 271 to 273 °C (dec.) | COc1cc2c(Nc3ccc(Cl)cc3F)ncnc2cc1OCc1cc(Cl)[nH]c(=O)c1.Cl |

| SMILES | melting point |
| --- | --- |
| COc1cc2c(Nc3ccc(C)c(OC(C)=O)c3)ncnc2cc1OCc1cccnc1 [Example 2, 4-(3-acetoxy-4-methylanilino)-6-methoxy-7-(3-pyridylmethoxy)quinazoline] | 113 to 115 °C |
